Molecular target: T1, DCAF1 (1058-1396) (Homo sapiens, UniProt Q9Y4B6)
T1 construct: a fragment of a DCAF1 protein that includes amino acid residues A1058 to E1396; His6 (N, cleaved yes); made in house; host or cells: Sf9 insect cells (Bac-to-Bac baculovirus, pFastBacHT vector)
Test: Surface plasmon resonance (SPR) binding assay, compound binding to DCAF1
Conditions: immobilized DCAF1 (1058-1396), steady state affinity model, 25° C.
Procedure: Binding affinities of specific exemplary compounds to DCAF1 (1058-1396), which is a fragment of a DCAF1 protein that includes amino acid residues A1058 to E1396 were determined by a surface plasmon resonance (SPR) assay. Briefly, purified DCAF1 (1058-1396) proteins were immobilized at a density of 9,000-11,000 resonance units (RUs) on a CMS sensor chip. Sensorgrams were recorded at different concentrations of compounds in multi-cycle kinetic format. Data were analyzed using a steady state affinity model through Biacore Evaluation Software to provide equivalent dissociation constants (Kd).
Binding affinities of compounds to DCAF1 were determined by a surface plasmon resonance (SPR) assay. Purified DCAF1 (1058-1396) proteins were immobilized on a CMS sensor chip, and a dose range of compound solutions were injected in multi-cycle kinetic format. Data were analyzed using a steady state model to provide equivalent dissociation constants (Kd).
Protein Expression and Purification: Human DCAF1 (1058-1396) (UniPro: Q9Y4B6) coding sequences were cloned into pFastBacHT vector and were expressed in Sf9 cells using Bac-to-Bac baculovirus expression system (Thermo Fisher Scientific). The expression construct for DCAF1 (1058-1396) included a N-terminal His6-tag to facilitate the purification. DCAF1 (1058-1396) proteins were obtained from supernatants of cell lysates and purified through sequential application of Ni affinity chromatography (Ni-NTA column, Bio-Rad), Tag removal using TEV protease, and size-exclusion chromatography (Superdex 200 column, GE Healthcare).
Surface plasmon resonance (SPR) binding assays: SPR studies were performed on a Biacore X100 plus or T200 instrument (GE Healthcare). Immobilization of purified DCAF1 (1058-1396) was carried out at 25° C. using a CMS sensor chip. The surface was pre-equilibrated in HBS-EP running buffer (10 mM HEPES, pH 7.4, 150 mM NaCl, 3 mM EDTA, 0.05% P20), before being activated with EDC/NHS. DCAF1 (1058-1396) was immobilized through amino groups to a density of 9,000-12,000 resonance units (RUs) on flow cell channel 2 (FC2), whereas flow cell channel 1 (FC1) was used as reference. Both DCAF1 immobilized and reference surfaces were deactivated with 1 M ethanolamine.
Interaction experiments were performed at 25° C. The compounds were prepared and serially diluted in HBS-EP running buffer containing final 2% DMSO (6-point two-fold serial dilution, 100 μM -3.125 μM final concentration of compounds). Compound Solutions were injected individually in multi-cycle kinetic format without regeneration (flow rate 30 μL/min, association time 60 s, dissociation time 60 s). Sensorgrams from reference surfaces and blank injections were subtracted from the raw data (double-referenced) and the data was solvent-corrected prior to analysis. Data were analyzed using a steady state affinity model through Biacore Evaluation Software to provide equivalent dissociation constants (Kd).

T1 sequence (Q9Y4B6 1058-1396): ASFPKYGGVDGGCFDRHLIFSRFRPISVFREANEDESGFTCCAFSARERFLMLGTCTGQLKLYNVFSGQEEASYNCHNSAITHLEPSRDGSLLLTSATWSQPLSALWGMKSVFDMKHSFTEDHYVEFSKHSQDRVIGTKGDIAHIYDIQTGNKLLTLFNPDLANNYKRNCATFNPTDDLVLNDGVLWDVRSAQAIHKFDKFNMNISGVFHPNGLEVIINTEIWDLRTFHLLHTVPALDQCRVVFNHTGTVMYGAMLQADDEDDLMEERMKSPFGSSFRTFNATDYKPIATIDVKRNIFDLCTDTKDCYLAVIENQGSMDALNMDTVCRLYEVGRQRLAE

| SMILES | Kd [µM] |
| --- | --- |
| Cc1ccc2c(c1)C1CN(C)CCC1N2C(=O)c1cc2c(C)nn(-c3ccc(Cl)cc3)c2s1 (centres unmarked) [CPD-074, (1-(4-chlorophenyl)-3-methyl-1H-thieno[2,3-c]pyrazol-5-yl)(2,8-dimethyl-1,2,3,4,4a,9b-hexahydro-5H-pyrido[4,3-b]indol-5-yl)methanone] | > 100 |
| Cc1ccc2c(c1)C1CN(C)CCC1N2C(=O)/C=C/c1cccc(C(F)(F)F)c1 (centres unmarked) [CPD-075, (E)-1-(2,8-dimethyl-1,2,3,4,4a,9b-hexahydro-5H-pyrido [4,3-b]indol-5-yl)-3-(3-(trifluoromethyl)phenyl)prop-2-en-1-one] | > 100 |
| COC(=O)c1scc(C)c1S(=O)(=O)N1c2ccc(C)cc2C2CN(C)CCC21 (centres unmarked) [CPD-076, methyl 3-((2,8-dimethyl-1,2,3,4,4a,9b-hexahydro-5H-pyrido[4,3-b]indol-5-yl)sulfonyl)-4-methylthiophene-2-carboxylate] | 40 to 70 |
| Cc1ccc2c(c1)C1CN(C)CCC1N2S(=O)(=O)c1ccc(C(=O)C(C)C)cc1 (centres unmarked) [CPD-077, 1-(4-((2,8-dimethyl-1,2,3,4,4a,9b-hexahydro-5H-pyrido[4,3-b]indol-5-yl)sulfonyl)phenyl)-2-methylpropan-1-one] | > 100 |
| Cc1ccc2c(c1)C1CN(C)CCC1N2S(=O)(=O)c1c([N+](=O)[O-])ccc(C)c1C (centres unmarked) [CPD-078, 5-((2,3-dimethyl-6-nitrophenyl)sulfonyl)-2,8-dimethyl-2,3,4,4a,5,9b-hexahydro-1H-pyrido[4,3-b]indole] | > 100 |
| Cc1ccc(C(=O)N[C@H](C(=O)N2c3ccc(C)cc3C3CN(C)CCC32)C(C)C)cc1 (stereo partly drawn) [CPD-079, N-((2S)-1-(2,8-dimethyl-1,2,3,4,4a,9b-hexahydro-5H-pyrido [4,3-b]indol-5-yl)-3-methyl-1-oxobutan-2-yl)-4-methylbenzamide] | > 100 |
| Cc1ccc2c(c1)C1CN(C)CCC1N2C(=O)C[C@@H](n1cccn1)C(F)(F)F (stereo partly drawn) [CPD-080, (R)-1-(2,8-dimethyl-1,2,3,4,4a,9b-hexahydro-5H-pyrido [4,3-b]indol-5-yl)-4,4,4-trifluoro-3-(1H-pyrazol-1-yl)butan-1-one] | > 100 |
| Cc1ccc2c(c1)C1CN(C)CCC1N2C(=O)/C=C/c1nccs1 (centres unmarked) [CPD-081, (E)-1-(2,8-dimethyl-1,2,3,4,4a,9b-hexahydro-5H-pyrido [4,3-b]indol-5-yl)-3-(thiazol-2-yl)prop-2-en-1-one] | > 100 |
| Cc1ccc2c(c1)C1CN(C)CCC1N2C(=O)CCc1cccs1 (centres unmarked) [CPD-082, 1-(2,8-dimethyl-1,2,3,4,4a,9b-hexahydro-5H-pyrido[4,3-b]indol-5-yl)-3-(thiophen-2-yl)propan-1-one] | > 100 |
| Cc1ccc2c(c1)C1CN(C)CCC1N2C(=O)/C=C/c1ccccc1 (centres unmarked) [CPD-083, (E)-1-(2,8-dimethyl-1,2,3,4,4a,9b-hexahydro-5H-pyrido [4,3-b]indol-5-yl)-3-phenylprop-2-en-1-one] | > 100 |
| Cc1ccc2c(c1)C1CN(C)CCC1N2C(=O)/C=C/c1ccc(F)cc1 (centres unmarked) [CPD-084, (E)-1-(2,8-dimethyl-1,2,3,4,4a,9b-hexahydro-5H-pyrido [4,3-b]indol-5-yl)-3-(4-fluorophenyl)prop-2-en-1-one] | 40 to 70 |
| COc1ccc(/C=C/C(=O)N2c3ccc(C)cc3C3CN(C)CCC32)cc1 (centres unmarked) [CPD-085, (E)-1-(2,8-dimethyl-1,2,3,4,4a,9b-hexahydro-5H-pyrido [4,3-b]indol-5-yl)-3-(4-methoxyphenyl)prop-2-en-1-one] | > 100 |
| Cc1ccc2c(c1)C1CN(C)CCC1N2C(=O)/C=C/c1ccc2c(c1)OCO2 (centres unmarked) [CPD-086, (E)-3-(benzo[d][1,3]dioxol-5-yl)-1-(2,8-dimethyl-1,2,3,4,4a,9b-hexahydro-5H-pyrido[4,3-b]indol-5-yl) prop-2-en-1-one] | > 100 |
| Cc1ccc2c(c1)C1CN(C)CCC1N2C(=O)/C=C/c1ccc(S(=O)(=O)N2CCOCC2)cc1 (centres unmarked) [CPD-087, (E)-1-(2,8-dimethyl-1,2,3,4,4a,9b-hexahydro-5H-pyrido [4,3-b]indol-5-yl)-3-(4-(morpholinosulfonyl)phenyl)prop-2-en-1-one] | 40 to 70 |
| Cc1ccc2c(c1)C1CN(C)CCC1N2C(=O)/C(=C/c1ccc(Cl)cc1)c1ccc(F)cc1 (centres unmarked) [CPD-088, (E)-3-(4-chlorophenyl)-1-(2,8-dimethyl-1,2,3,4,4a,9b-hexahydro-5H-pyrido[4,3-b]indol-5-yl)-2-(4-fluorophenyl)prop-2-en-1-one] | 40 to 70 |
| CN(C)C(=O)c1ccc(NCC2Cc3ccccc3CN2C)nc1 (centres unmarked) [CPD-089, N,N-dimethyl-6-(((2-methyl-1,2,3,4-tetrahydroisoquinolin-3-yl)methyl)amino)nicotinamide] | 70 to 100 |

| SMILES | Kd [µM] |
| --- | --- |
| CN1Cc2ccccc2CC1CNc1nccc(-c2ccncc2)n1 (centres unmarked) [CPD-090, N-((2-methyl-1,2,3,4-tetrahydroisoquinolin-3-yl)methyl)-4-(pyridin-4-yl)pyrimidin-2-amine] | 40 to 70 |
| CCn1ccnc1CN(C)CC1Cc2ccccc2CN1C (centres unmarked) [CPD-091, 1-(1-ethyl-1H-imidazol-2-yl)-N-methyl-N-((2-methyl-1,2,3,4-tetrahydroisoquinolin-3-yl)methyl)methanamine] | 70 to 100 |
| CN1Cc2ccccc2CC1CNC(=O)c1nc(=N)[nH]c2c1CCCC2 (centres unmarked) [CPD-092, 2-imino-N-((2-methyl-1,2,3,4-tetrahydroisoquinolin-3-yl)methyl)-1,2,5,6,7,8-hexahydroquinazoline-4-carboxamide] | 40 to 70 |
| Cc1cc(N)n(CC(=O)N(C)CC2Cc3ccccc3CN2C)n1 (centres unmarked) [CPD-093, 2-(5-amino-3-methyl-1H-pyrazol-1-yl)-N-methyl-N-((2-methyl-1,2,3,4-tetrahydroisoquinolin-3-yl)methyl)acetamide] | 40 to 70 |
| Cc1nc(N)nc(C)c1CC(=O)NCC1Cc2ccccc2CN1C (centres unmarked) [CPD-094, 2-(2-amino-4,6-dimethylpyrimidin-5-yl)-N-((2-methyl-1,2,3,4-tetrahydroisoquinolin-3-yl)methyl)acetamide] | 40 to 70 |
| CN(CC1Cc2ccccc2CN1C)C(=O)Cn1cnc2ccccc21 (centres unmarked) [CPD-095, 2-(1H-benzo[d]imidazol-1-yl)-N-methyl-N-((2-methyl-1,2,3,4-tetrahydroisoquinolin-3-yl)methyl)acetamide] | 40 to 70 |
| CN1Cc2ccccc2CC1CNC(=O)Nc1ccc2c(c1)nnn2C (centres unmarked) [CPD-096, 1-((2-methyl-1,2,3,4-tetrahydroisoquinolin-3-yl)methyl)-3-(1-methyl-1H-benzo [d][1,2,3]triazol-5-yl)urea] | > 100 |
| CN(CC1Cc2ccccc2CN1C)C(=O)/C=C/c1cc(CO)cs1 (centres unmarked) [CPD-097, (E)-3-(4-(hydroxymethyl)thiophen-2-yl)-N-methyl-N-((2-methyl-1,2,3,4-tetrahydroisoquinolin-3-yl)methyl)acrylamide] | > 100 |
| O=C(NCCn1ncc2ccccc2c1=O)C1Cc2ccccc2CN1 (centres unmarked) [CPD-098, N-(2-(1-oxophthalazin-2(1H)-yl)ethyl)-1,2,3,4-tetrahydroisoquinoline-3-carboxamide] | 40 to 70 |
| Cn1cccc1CNCC1CC(c2nncn2C)CC1O (centres unmarked) [CPD-099, 2-((((1-methyl-1H-pyrrol-2-yl)methyl)amino)methyl)-4-(4-methyl-4H-1,2,4-triazol-3-yl)cyclopentan-1-ol] | 40 to 70 |
| CCCCNCc1cccn1-c1ccccc1 [CPD-100, N-((1-phenyl-1H-pyrrol-2-yl)methyl)butan-1-amine] | 70 to 100 |
| OCCCNCc1cccn1-c1ccccc1 [CPD-101, 3-(((1-phenyl-1H-pyrrol-2-yl)methyl)amino)propan-1-ol] | > 100 |
| Oc1ccc(F)c(CNCc2cnc[nH]2)c1 [CPD-102, 3-((((1H-imidazol-5-yl)methyl)amino)methyl)-4-fluorophenol] | > 100 |
| OCCOc1cccc(CNCc2cnc[nH]2)c1 [CPD-103, 2-(3-((((1H-imidazol-5-yl)methyl)amino)methyl)phenoxy)ethan-1-ol] | > 100 |
| COc1ccc2cc(CNCc3cncn3CC(C)C)c(=O)[nH]c2c1 [CPD-104, 3-((((1-isobutyl-1H-imidazol-5-yl)methyl)amino)methyl)-7-methoxyquinolin-2(1H)-one] | 70 to 100 |
| OCC1(CNCc2cnc[nH]2)CC1 [CPD-105, (1-((((1H-imidazol-5-yl)methyl)amino)methyl)cyclopropyl) methanol] | ≤ 40 |
